From patent publication US20140235643A1, “NOVEL QUINOXALINE INHIBITORS OF PI3K” (GILEAD CALISTOGA LLC, priority 2011, published 2014)

Key:
PI3Kα (p110α/p85α) = molecular target: T1, PI3Kα (p110α/p85α) (Homo sapiens, UniProt P42336); assay: PI3K biochemical enzyme assay (Adapta universal kinase assay), p110 alpha/p85 alpha; details: for IC50: Table 1, lower part, read-out: PI3Kα IC50
T1 construct: purchased Invitrogen
Protocol: (§1) This example describes a method of obtaining in vitro activity data concerning the effect of compounds of on various PI3K isoforms. The effect of compounds on the kinase activity of Class I PI3Ks was measured at Invitrogen by using the Adapta® universal kinase assay. It was a homogenous, fluorescent based immunoassay for the detection of ADP produced by the kinase reaction. This assay can be divided into two phases: a kinase reaction phase, and an ADP detection phase. In the kinase reaction phase, all components required for the kinase reaction were added to the well, and the reaction was allowed to incubate for 60 minutes. After the reaction, a detection solution consisting of a europium labeled anti-ADP antibody, an Alexa Fluor® 647 labeled ADP tracer, and EDTA (to stop the kinase reaction) was added to the assay well. ADP formed by the kinase reaction (in the absence of an inhibitor) displaced the Alexa Fluor® 647 labeled ADP tracer from the antibody, resulting in a decrease in the TR-FRET signal.
(§2) ADP formation was determined by calculating the emission ratio from the assay well. The emission ratio was calculated by dividing the intensity of the tracer (acceptor) emission by the intensity of the Eu (donor) emission at 615 nm as shown in the equation below.
(§3) The Test Compounds were screened in 1% DMSO (final) in the well. All Substrate/Kinase Mixtures were diluted to a 2× working concentration in the appropriate Kinase Buffer as described below for the individual kinase:
(§4) The 2× p110 alpha/p85 alpha/PIP2:PS mixture was prepared in 50 mM HEPES pH 7.5, 100 mM NaCl, 0.03% CHAPS, 3 mM mgCl2, 1 mM EGTA. The final 10 μL Kinase Reaction consisted of 0.3-1.5 ng p110 alpha/p85 alpha and 50 μM PIP2:PS in 32.5 mM HEPES pH 7.5, 50 mM NaCl, 0.015% CHAPS, 1.5 mM mgCl2, 0.5 mM EGTA. After the 1 hour Kinase Reaction incubation, 5 μL of Detection Mix was added.
(§5) The Detection mix consisted of EDTA (30 mM), Eu-anti-ADP antibody (30 nM) and ADP tracer. All ATP Solutions were diluted to a 4× working concentration in water and used at the Km apparent concentrations for each individual kinase.

PI3Kβ (p110β/p85α) = molecular target: T2, PI3Kβ (p110β/p85α) (Homo sapiens, UniProt P42338); assay: PI3K biochemical enzyme assay (Adapta universal kinase assay), p110 beta/p85 alpha; details: for inhibition at 10 µM: read-out: PI3Kβ % inhib; for IC50: Table 1, lower part, read-out: PI3Kβ IC50
T2 construct: purchased Invitrogen
T2 sequence (P42338 whole entry): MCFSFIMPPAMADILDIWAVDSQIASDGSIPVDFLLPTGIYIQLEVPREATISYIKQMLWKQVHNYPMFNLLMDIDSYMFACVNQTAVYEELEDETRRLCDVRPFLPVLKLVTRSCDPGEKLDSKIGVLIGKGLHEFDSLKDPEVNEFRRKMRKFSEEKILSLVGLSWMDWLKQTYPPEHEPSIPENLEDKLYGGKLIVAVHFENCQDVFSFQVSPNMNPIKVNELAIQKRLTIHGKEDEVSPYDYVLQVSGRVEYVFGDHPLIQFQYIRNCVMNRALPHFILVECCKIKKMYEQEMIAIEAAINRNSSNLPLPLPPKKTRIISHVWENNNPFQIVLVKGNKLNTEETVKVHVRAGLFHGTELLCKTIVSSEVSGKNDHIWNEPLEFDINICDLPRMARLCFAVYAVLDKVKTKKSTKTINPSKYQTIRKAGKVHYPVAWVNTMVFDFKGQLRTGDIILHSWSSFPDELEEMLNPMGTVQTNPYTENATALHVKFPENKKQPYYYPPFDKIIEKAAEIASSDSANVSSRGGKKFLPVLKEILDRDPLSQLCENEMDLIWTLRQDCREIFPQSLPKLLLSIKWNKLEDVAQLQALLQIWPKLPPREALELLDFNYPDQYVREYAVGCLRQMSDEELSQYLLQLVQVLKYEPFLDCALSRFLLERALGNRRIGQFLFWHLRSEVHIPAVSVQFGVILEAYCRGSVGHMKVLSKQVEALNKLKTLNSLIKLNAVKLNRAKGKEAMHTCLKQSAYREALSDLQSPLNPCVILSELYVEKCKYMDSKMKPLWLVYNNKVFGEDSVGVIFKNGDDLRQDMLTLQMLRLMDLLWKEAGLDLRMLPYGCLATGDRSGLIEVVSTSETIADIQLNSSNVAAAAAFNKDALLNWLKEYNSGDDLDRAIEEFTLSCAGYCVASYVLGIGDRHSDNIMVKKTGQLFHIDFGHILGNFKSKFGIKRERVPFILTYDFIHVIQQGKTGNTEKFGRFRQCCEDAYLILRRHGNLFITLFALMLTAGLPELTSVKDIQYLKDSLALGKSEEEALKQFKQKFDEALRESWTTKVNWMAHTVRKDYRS
T2 sequence (P27986 whole entry partner): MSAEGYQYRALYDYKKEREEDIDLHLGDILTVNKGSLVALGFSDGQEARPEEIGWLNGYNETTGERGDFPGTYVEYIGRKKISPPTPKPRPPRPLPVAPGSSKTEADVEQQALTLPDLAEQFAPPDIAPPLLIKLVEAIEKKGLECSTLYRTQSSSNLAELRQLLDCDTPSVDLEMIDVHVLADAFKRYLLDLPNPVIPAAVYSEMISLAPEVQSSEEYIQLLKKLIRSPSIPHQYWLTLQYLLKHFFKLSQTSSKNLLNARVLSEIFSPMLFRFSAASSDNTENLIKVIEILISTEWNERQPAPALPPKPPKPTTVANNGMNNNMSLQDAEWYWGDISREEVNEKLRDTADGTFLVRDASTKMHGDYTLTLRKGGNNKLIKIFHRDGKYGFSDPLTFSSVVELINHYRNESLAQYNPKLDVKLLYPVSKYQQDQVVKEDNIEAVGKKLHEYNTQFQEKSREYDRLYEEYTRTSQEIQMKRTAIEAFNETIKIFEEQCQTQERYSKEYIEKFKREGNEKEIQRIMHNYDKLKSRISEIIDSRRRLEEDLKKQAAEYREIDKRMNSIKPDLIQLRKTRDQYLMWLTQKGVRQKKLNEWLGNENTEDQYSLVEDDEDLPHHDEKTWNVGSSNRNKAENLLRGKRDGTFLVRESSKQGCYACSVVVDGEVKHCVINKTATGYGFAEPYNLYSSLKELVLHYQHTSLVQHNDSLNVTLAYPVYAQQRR
Protocol: as §1, §2, §3
The 2× p 110beta/p85 alpha/PIP2:PS mixture was prepared in 50 mM HEPES pH 7.5, 100 mM NaCl, 0.03% CHAPS, 1 mM EGTA, 3 mM mgCl2, and 2 mM DTT. The final 10 μL Kinase Reaction consisted of 35.4 ng p110 beta/p85 alpha and 50 μM PIP2:PS. After the 1 hour Kinase Reaction incubation, 5 μL of Detection Mix was added.
as §5

PI3Kδ (p110δ/p85α) = molecular target: T3, PI3Kδ (p110δ/p85α) (Homo sapiens, UniProt O00329); assay: PI3K biochemical enzyme assay (Adapta universal kinase assay), p110 delta/p85 alpha; details: for IC50: Table 1, lower part, read-out: PI3Kδ IC50
T3 construct: purchased Invitrogen
Protocol: as §1, §2, §3
as §4, with “p110 delta/p85” for “p110 alpha/p85”, “of 0.35-2.6” for “of 0.3-1.5”, “incubation, […]” for “incubation, 5”
as §5

PI3Kγ (p110 gamma) = molecular target: T4, PI3Kγ (p110 gamma) (Homo sapiens, UniProt P48736); assay: PI3K biochemical enzyme assay (Adapta universal kinase assay), p110 gamma; details: for inhibition at 1 µM / inhibition at 10 µM: read-out: PI3Kγ % inhib; for IC50: Table 1, lower part, read-out: PI3Kγ IC50; for increase in gamma potency compared to analog without amino substituent on the purine ring: Q17 vs Q16, Q15 vs Q14
T4 construct: purchased Invitrogen
Protocol: as §1, §2, §3
The 2× p110 gamma/PIP2:PS mixture was prepared in 50 mM HEPES pH 7.5, 1 mM EGTA, 3 mM mgCl2. The final […] Kinase Reaction consisted of 3.5-26 ng p110 gamma and 50 μM PIP2:PS in 32.5 mM HEPES pH 7.5, 0.5 mM EGTA, 1.5 mM mgCl2. After the 1 hour Kinase Reaction incubation, 5 μL of Detection Mix was added.
as §5

PI3Kα = molecular target: T5, PI3Kα (Mus musculus, UniProt P42337); assay: PI3Kα-dependent cell-based assay: PDGF-BB mediated AKT phosphorylation in Swiss-3T3 cells; details: PDGF-BB-induced AKT phosphorylation, Swiss-3T3 fibroblasts
T5 construct: endogenous in cells; host or cells: Swiss-3T3 fibroblasts (ATCC)
T5 sequence (P42337 whole entry): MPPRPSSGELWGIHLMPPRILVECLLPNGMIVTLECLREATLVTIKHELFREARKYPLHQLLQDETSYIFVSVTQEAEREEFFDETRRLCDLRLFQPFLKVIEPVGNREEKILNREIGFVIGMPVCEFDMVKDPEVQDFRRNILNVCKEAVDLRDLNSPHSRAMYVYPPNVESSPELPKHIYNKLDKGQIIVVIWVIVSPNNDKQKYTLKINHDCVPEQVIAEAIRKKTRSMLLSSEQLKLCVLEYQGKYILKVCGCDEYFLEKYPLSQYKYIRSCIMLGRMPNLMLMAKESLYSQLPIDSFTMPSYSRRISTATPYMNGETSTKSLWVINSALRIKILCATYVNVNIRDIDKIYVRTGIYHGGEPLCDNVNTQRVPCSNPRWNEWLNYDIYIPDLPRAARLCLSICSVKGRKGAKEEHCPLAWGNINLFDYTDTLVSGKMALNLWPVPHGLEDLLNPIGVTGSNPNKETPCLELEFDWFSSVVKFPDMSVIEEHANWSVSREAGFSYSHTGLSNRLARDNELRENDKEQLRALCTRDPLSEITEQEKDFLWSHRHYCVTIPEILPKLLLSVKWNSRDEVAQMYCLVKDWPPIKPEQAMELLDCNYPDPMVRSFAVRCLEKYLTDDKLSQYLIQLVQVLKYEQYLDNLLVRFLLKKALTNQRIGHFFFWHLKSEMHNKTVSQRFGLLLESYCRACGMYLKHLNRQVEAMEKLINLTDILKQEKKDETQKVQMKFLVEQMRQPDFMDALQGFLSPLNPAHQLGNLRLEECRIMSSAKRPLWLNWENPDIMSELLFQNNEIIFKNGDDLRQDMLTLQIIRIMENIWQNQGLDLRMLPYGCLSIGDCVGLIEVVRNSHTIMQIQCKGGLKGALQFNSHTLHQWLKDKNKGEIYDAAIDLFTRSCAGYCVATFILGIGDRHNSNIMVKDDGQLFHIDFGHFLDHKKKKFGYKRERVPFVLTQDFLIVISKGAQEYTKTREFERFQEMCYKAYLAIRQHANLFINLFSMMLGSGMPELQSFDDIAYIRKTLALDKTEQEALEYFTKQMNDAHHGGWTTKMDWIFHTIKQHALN
T5 sequence (P26450 whole entry partner): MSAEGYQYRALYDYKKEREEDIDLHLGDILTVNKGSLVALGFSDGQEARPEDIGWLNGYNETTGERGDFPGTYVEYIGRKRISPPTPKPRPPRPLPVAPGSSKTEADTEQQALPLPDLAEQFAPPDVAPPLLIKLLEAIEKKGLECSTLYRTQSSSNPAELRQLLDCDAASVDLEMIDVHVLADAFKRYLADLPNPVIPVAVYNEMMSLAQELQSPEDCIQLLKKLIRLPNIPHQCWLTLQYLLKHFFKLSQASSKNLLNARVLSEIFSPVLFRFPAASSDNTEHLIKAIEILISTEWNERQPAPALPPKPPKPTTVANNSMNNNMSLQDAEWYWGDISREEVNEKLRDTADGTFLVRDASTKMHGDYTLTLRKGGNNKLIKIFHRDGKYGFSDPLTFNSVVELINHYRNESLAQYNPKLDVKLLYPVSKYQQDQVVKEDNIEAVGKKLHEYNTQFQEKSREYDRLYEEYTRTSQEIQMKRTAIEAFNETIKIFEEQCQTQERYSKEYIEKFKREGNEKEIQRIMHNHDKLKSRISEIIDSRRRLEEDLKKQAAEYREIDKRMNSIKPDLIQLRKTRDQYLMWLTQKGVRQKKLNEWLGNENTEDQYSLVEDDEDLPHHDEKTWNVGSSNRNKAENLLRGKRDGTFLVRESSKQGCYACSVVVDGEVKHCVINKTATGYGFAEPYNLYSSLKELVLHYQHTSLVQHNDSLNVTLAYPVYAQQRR
Protocol: (§6) PDGF-BB-induced AKT phosphorylation in Swiss-3T3 fibroblasts is mediated by p110α. C5a-induced AKT phosphorylation in RAW-264 murine macrophages is mediated exclusively by p110γ.
PI3Kα-Dependent Cell-Based Assay: PDGF-BB Mediated AKT Phosphorylation in Swiss-3T3 Cells
Swiss-3T3 fibroblasts (American Type Culture Collection) were cultured with DMEM containing 10% fetal bovine serum and the antibiotics penicillin and streptomycin. Cells were seeded on a 96-well Tissue Culture Plate at 25,000 cells/well and allowed to reach at least 90% confluency. The cells were starved for 2 to 12 hr in 0.1% FBS containing medium and then were pretreated with inhibitors or DMSO for 2 hr. The cells were stimulated for 15 min with 10 ng/ml PDGF-BB (Cell Signaling Technology) at 37° C. in 5% CO2. The culture medium was removed and cells were fixed for 20 min at room temperature by addition of 100 μl of 4% cell fixing buffer to each well. AKT phosphorylation and total AKT was detected by ELISA.
(§7) Detection of Phospho-Ser-473 AKT and Total AKT by ELISA
(§8) The fixed cells were washed twice with 150 μl of wash buffer (WB) and quenched by incubating with 100 μl of Quenching Buffer for 20 min at room temperature. Cells were washed once with 150 μl WB and blocked by incubating with 100 μl of Blocking Buffer for 1 hr at room temperature. Cells were incubated with 50 μl of primary antibody diluted in Blocking Buffer, either phospho-Ser-473 AKT specific (1:150 dilution) or total-AKT antibody (1:200 dilution), to each specific well. The negative control wells contained 50 μl of Blocking Buffer. Plates were sealed with plate sealing film and incubated overnight at 4° C. Cells were washed twice with 150 μl WB followed by addition of 50 μl per well of DELFIA secondary antibody (50 ng/well, diluted in DELFIA Assay Buffer). After 2 hr incubation at room temperature, cells were washed 4 times with 150 μl of Europium Wash Solution followed by addition of 100 μl of DELFIA Enhancing Solution to each well. Plates were incubated for 5 min in the dark and fluorescent signal was read using SpectraMax M5™ (Molecular Devices). Total AKT level was determined to verify equal cell number per well. The average background fluorescence values from wells that received vehicle control in the absence of PDGF-BB or C5a were subtracted from all the values of experimental conditions. Fluorescence values corresponding to phosphorylated AKT from wells that received PDGF-BB or C5a were normalized to 100% and compound effect was plotted as % change relative to the vehicle control.

PI3Kγ = molecular target: T6, PI3Kγ (Mus musculus, UniProt Q9JHG7); assay: PI3Kγ-dependent cell-based assay: C5a-mediated AKT phosphorylation in RAW-264 cells; parameters: species or system murine; details: C5a-induced AKT phosphorylation, RAW-264 macrophages
T6 construct: endogenous in cells; host or cells: RAW-264 macrophage cells (ATCC)
T6 sequence (Q9JHG7 whole entry): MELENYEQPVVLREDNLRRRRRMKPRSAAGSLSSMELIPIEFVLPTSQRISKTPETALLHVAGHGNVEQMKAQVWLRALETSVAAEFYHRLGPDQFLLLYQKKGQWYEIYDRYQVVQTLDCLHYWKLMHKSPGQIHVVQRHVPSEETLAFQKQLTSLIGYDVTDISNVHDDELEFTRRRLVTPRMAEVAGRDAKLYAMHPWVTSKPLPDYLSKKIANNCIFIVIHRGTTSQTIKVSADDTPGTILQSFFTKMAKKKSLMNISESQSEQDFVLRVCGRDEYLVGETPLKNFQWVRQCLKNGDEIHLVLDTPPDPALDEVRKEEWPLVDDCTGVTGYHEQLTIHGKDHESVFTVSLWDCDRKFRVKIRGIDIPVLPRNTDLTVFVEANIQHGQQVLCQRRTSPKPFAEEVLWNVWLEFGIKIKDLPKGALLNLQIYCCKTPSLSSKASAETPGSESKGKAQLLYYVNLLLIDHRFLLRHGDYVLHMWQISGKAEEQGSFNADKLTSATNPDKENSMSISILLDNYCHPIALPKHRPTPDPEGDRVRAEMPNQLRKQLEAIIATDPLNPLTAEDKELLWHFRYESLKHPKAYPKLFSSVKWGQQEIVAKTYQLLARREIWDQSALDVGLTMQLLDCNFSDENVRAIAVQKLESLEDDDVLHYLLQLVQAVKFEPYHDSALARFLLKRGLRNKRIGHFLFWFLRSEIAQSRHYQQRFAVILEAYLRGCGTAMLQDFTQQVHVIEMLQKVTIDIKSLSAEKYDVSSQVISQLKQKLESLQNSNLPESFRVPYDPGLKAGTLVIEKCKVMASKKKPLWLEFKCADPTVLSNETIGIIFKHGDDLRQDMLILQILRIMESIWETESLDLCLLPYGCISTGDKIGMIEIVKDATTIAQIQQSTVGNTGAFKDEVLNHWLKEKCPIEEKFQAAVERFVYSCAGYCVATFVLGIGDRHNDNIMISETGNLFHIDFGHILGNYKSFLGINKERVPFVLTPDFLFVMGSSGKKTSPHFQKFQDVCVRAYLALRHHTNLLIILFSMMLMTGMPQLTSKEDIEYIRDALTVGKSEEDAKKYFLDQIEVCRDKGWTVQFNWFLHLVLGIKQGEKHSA
Protocol: as §6
PI3Kγ-Dependent Cell-Based Assay: C5a-Mediated AKT Phosphorylation in RAW-264 Cells
RAW-264 macrophage cells (American Type Culture Collection) were cultured with Dulbecco's modified Eagle medium (DMEM) containing 10% fetal bovine serum and the antibiotics penicillin and streptomycin. Cells were seeded on a 96-well Tissue Culture Plate at 100,000 to 200,000 cells/well the day before the experiment. Next day, cells were starved for 2 hr in 0.1% FBS containing medium. The cells were pretreated with inhibitors or DMSO for 2 hr and stimulated for 5 min with 75 ng/ml C5a (R&D) at 37° C. in 5% CO2. The culture medium was removed and cells were fixed for 20 min at room temperature by addition of 100 μl of 4% cell fixing buffer to each well. AKT phosphorylation and total AKT was detected by ELISA.
as §7, §8

inhibition at 10 µM (PI3Kα (p110α/p85α); read-out: PI3Kα % inhib) [%] | inhibition at 10 µM (PI3Kβ (p110β/p85α)) [%] | inhibition at 1 µM (PI3Kδ (p110δ/p85α); read-out: PI3Kδ % inhib) [%] | inhibition at 10 µM (PI3Kδ (p110δ/p85α); read-out: PI3Kδ % inhib) [%] | inhibition at 1 µM (PI3Kγ (p110 gamma)) [%] | inhibition at 10 µM (PI3Kγ (p110 gamma)) [%] | EC50 (PI3Kα) [µM] | EC50 (PI3Kγ) [µM] | inhibition at 1 µM (PI3Kα (p110α/p85α); 1 μM, read-out: PI3Kα % inhib) [%] | IC50 (PI3Kδ (p110δ/p85α)) [µM] | IC50 (PI3Kγ (p110 gamma)) [µM] | increase in gamma potency compared to analog without amino substituent on the purine ring (PI3Kγ (p110 gamma)) [×] | IC50 (PI3Kα (p110α/p85α)) [µM] | IC50 (PI3Kβ (p110β/p85α)) [µM] | SMILES | inhibition at 0.1 µM (PI3Kδ (p110δ/p85α); 0.1 μM, read-out: PI3Kδ % inhib) [%]
88 | 77 | 71 | 100 | 61 | 95 | 15.2 | 3.59 | 28 | – | – | – | – | – | Cc1cccc2nc(C(C)Nc3ncnc4[nH]cnc34)c(-c3ccc(F)cc3)nc12 (stereo not drawn) [Compound Q7] | –
50 | 53 | 58 | 100 | 30 | 83 | > 20 | > 20 | – | – | – | – | – | – | CCC(Nc1ncnc2[nH]cnc12)c1nc2cccc(C)c2nc1-c1ccccc1 (stereo not drawn) [Compound Q8] | –
30 | 30 | 74 | 99 | 12 | 82 | > 20 | > 20 | – | – | – | – | – | – | CC(Nc1ncnc2[nH]cnc12)c1nc2ccccc2nc1-c1c(F)cccc1F (stereo not drawn) [Compound Q10] | –
53 | 76 | 45 | 99 | – | 79 | > 20 | > 20 | – | – | – | – | – | – | Cc1ccc(-c2nc3ccccc3nc2C(C)Nc2ncnc3[nH]cnc23)cc1 (stereo not drawn) [Compound Q11] | –
– | – | – | – | – | – | – | – | – | 1.17 | 46.5 | – | – | – | Nc1ncnc2c1ncn2Cc1nc2ccccc2nc1-c1ccccc1 [Compound Q13] | –
– | – | – | – | – | – | – | – | – | 0.95 | 17.5 | – | – | – | c1ccc(-c2nc3ccccc3nc2CSc2ncnc3[nH]cnc23)cc1 [Compound Q14] | –
– | – | – | – | – | – | – | – | – | 0.25 | 2.38 | 8 | – | – | Nc1nc(SCc2nc3ccccc3nc2-c2ccccc2)c2nc[nH]c2n1 [Compound Q15] | –
– | – | – | – | – | – | – | – | – | 0.19 | 20.5 | – | 51 | 14.5 | c1ccc(-c2nc3ccccc3nc2CNc2ncnc3[nH]cnc23)cc1 [Compound Q16] | –
– | – | – | – | – | – | – | – | – | 0.075 | 0.692 | 30 | 100 | 8.5 | Nc1nc(NCc2nc3ccccc3nc2-c2ccccc2)c2nc[nH]c2n1 [Compound Q17] | –

SMILES | inhibition at 10 µM (PI3Kα (p110α/p85α); read-out: PI3Kα % inhib) [%] | inhibition at 10 µM (PI3Kβ (p110β/p85α)) [%] | inhibition at 1 µM (PI3Kδ (p110δ/p85α); read-out: PI3Kδ % inhib) [%] | inhibition at 10 µM (PI3Kδ (p110δ/p85α); read-out: PI3Kδ % inhib) [%] | inhibition at 1 µM (PI3Kγ (p110 gamma)) [%] | inhibition at 10 µM (PI3Kγ (p110 gamma)) [%] | EC50 (PI3Kα) [µM] | EC50 (PI3Kγ) [µM] | inhibition at 1 µM (PI3Kα (p110α/p85α); 1 μM, read-out: PI3Kα % inhib) [%] | IC50 (PI3Kδ (p110δ/p85α)) [µM] | IC50 (PI3Kγ (p110 gamma)) [µM] | increase in gamma potency compared to analog without amino substituent on the purine ring (PI3Kγ (p110 gamma)) [×] | IC50 (PI3Kα (p110α/p85α)) [µM] | IC50 (PI3Kβ (p110β/p85α)) [µM] | inhibition at 0.1 µM (PI3Kδ (p110δ/p85α); 0.1 μM, read-out: PI3Kδ % inhib) [%]
Cc1cccc2nc(C(C)n3cnc4c(N)ncnc43)c(-c3ccccc3)nc12 (stereo not drawn) [Compound Q6, 9-[1-(5-methyl-3-phenylquinoxalin-2-yl)ethyl]-9H-purin-6-amine] | 32 | 61 | 86 | 100 | 48 | 89 | > 20 | > 20 | – | – | – | – | – | – | 63
